pEC50, pIC50: −log10 of the molar value. Blank lines part the entries; values can stand above or below the compound they belong to.
Experiments:
PI3Kalpha = PI3Kalpha (Homo sapiens (Human), UniProt P42336); assay: Inhibition of PI3Kalpha-induced PIP-2 phosphorylation (filter-binding assay); format: biochemical; conditions: 33P-ATP, p85alpha/His-p110alpha, read-out: IC50 PI3Kα
How it was run: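 Radiometric filter-binding assay: PI3Kα (25 ng/well) preincubated 20 min at room temperature with compound and PIP2-containing lipid vesicles plus phosphotyrosine PDGFRβ peptide. Reaction started with cold ATP (1 μM final) and [33P]-ATP and run 120 min at room temperature; filter-captured radioactivity counted, IC50 from duplicate dilution series.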

H460 cells = assay: alamarBlue H460 cell assay (antiproliferative/cytotoxicity); format: cell-based; conditions: NCI-H460; H460 human lung carcinoma cells
How it was run: (§1)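 Cells were seeded overnight at 37 °C, then exposed in duplicate to compounds at final 10 μM with 1:3 serial dilutions for 5-6 days. alamarBlue was added for 8 h at 37 °C and fluorescence read (ex 530-560 nm, em 590 nm); EC50 was calculated after medium-blank subtraction.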

MB453 cells = assay: alamarBlue MB453 cell assay (antiproliferative/cytotoxicity); format: cell-based; conditions: Homo sapiens; MDA MB 453 breast cancer cell line
How it was run: as §1

U87 cells = assay: U87 cell assay (antiproliferative/cytotoxicity); format: cell-based; conditions: U-87MG human glioblastoma cells
How it was run: as §1

MCF7 cells = assay: alamarBlue MCF7 cell assay (antiproliferative/cytotoxicity); format: cell-based; conditions: MCF7 human breast cancer cell line
Description: The H460, MB453, U87, MCF7 and BT474 alamarBlue cell assays provide EC50 values indicative of the antiproliferative or cytotoxic effects of the compounds to respectively the H460 (human non small cell line cancer), MB-453 (breast cancer cell line), U87 (glioblastoma cell line), MCF7 (breast cancer cell line) and BT474 (breast cancer cell line). As known in the field, antiproliferative or cytotoxic effect against this cell lines would be expected to be indicative of activity in treating lung, breast and brain cancers. See R. Marone R et al. Biochim. Biophys. Acta. 2008 January; 1784(1):159-85. S. Yaguchi et al., J. Natl. Cancer Inst. 2006 Apr. 19; 98(8):545-56.
Method Type: Antiproliferative/Cytotoxicity
alamarBlue® is designed to provide a rapid and sensitive measure of cell proliferation and cytotoxicity in various human and animal cell lines. The assay is based on the reduction of alamarBlue in the reducing environment of living (metabolically active) cells. In the presence of added cytotoxic or antiproliferative compounds, the innate metabolic activity ceases.
AlamarBlue is soluble and stable in culture medium. Measurements are made fluorometrically by exciting at 530-560 nm and measuring emission at 590 nm. In reporting percent alamarBlue reduction by monitoring fluorescence, data are expressed as fluorescence emission intensity units as a function of time of incubation.
3. Equipment • 96-well plates, flat bottom (Falcon, Cat. No.: 353072) • 96-well plates, U-shaped (Costar, Cat. No.: 3799) • CO2-Incubator • Microplate Reader, Spectramax Plus, Molecular Devices 4. Typical Procedure • Day 0: Seed 3000 BT-474 cells (IMDM/5% FCS, 1% NEAA, 1% Sodiumpyruvat) in 150 μl medium into a 96-well plate, flat bottom (include mediumblank). Incubate plates at 37° C. in a CO2 incubator overnight. • Day 1: Dilute compounds to a concentration 40 μM->1:3 in medium, 10 dilution steps, in 96-well plates. • Add 50 μl per well of each dilution (total volume per well 200 μl; final conc. of cpds: 10 μM->1:3). If required, test further dilutions. • All concentrations are tested in duplicates. • Controls: Cells w/o cpd. (+50 μl medium/DMSO). • Cells are incubated with compounds for 5-6 days. • Day 6 or 7: Add 25 μl of alamarBlue solution to each well and incubate for 8 hours at 37° C. Measure fluorescence by exciting at 530-560 nm and measuring emission at 590 nm. 5. Evaluation • Subtract average value for medium blank from sample readings • Calculate EC50 using GraphPad Prism (Fifty)

BT474 cells = assay: alamarBlue BT474 cell assay (antiproliferative/cytotoxicity); format: cell-based; conditions: BT-474 human breast cancer cell line
How it was run: as §1

Chain of PI3Kalpha (P42336 whole entry): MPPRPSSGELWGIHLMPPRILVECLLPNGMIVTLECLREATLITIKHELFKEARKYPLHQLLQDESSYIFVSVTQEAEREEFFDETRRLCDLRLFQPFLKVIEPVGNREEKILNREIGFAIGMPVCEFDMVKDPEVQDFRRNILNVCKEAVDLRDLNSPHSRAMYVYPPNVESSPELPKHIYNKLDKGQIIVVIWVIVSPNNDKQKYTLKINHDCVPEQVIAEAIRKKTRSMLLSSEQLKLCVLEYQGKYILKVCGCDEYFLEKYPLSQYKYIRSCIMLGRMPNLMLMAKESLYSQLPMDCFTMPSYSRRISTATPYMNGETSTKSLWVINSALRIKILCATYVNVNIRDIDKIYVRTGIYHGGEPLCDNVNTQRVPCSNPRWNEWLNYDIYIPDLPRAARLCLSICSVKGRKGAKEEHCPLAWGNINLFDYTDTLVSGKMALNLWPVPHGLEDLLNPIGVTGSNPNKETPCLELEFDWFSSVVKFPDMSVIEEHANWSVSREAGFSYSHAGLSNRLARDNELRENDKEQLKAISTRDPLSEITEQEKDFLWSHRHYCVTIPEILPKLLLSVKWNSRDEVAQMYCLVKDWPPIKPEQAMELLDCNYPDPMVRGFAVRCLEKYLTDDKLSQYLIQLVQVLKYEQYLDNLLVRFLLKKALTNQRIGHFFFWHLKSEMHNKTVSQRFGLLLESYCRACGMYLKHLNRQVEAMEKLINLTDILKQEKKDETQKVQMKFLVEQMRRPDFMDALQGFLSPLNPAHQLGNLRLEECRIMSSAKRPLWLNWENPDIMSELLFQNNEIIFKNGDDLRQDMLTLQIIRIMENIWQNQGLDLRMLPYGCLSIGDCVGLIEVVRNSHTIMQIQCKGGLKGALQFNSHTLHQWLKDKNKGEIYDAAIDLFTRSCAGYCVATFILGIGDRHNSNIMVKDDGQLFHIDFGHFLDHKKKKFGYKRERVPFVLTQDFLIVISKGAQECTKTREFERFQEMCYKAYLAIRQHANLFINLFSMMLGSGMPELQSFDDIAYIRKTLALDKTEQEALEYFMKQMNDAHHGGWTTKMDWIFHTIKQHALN

SMILES: Cc1ncc(C#Cc2c(C)ncnc2N2CCOCC2)cc1NS(=O)(=O)c1ccccc1C(F)(F)F [Example I-13, N-[2-Methyl-5-(4-methyl-6-morpholin-4-yl-pyrimidin-5-ylethynyl)-pyridin-3-yl]-2-trifluoromethyl-benzenesulfonamide]
pIC50 (PI3Kalpha): 9.20
pEC50 (H460 cells): 7.64
pEC50 (MB453 cells): 7.20
pEC50 (U87 cells): 6.97
pEC50 (MCF7 cells): 7.74
pEC50 (BT474 cells): 7.16

SMILES: Cc1ncc(C#Cc2c(C)ncnc2N(C)C(C)C)cc1NS(=O)(=O)c1ccc(F)cc1F [Example I-15, 2,4-Difluoro-N-{5-[4-(isopropyl-methyl-amino)-6-methyl-pyrimidin-5-ylethynyl]-2-methyl-pyridin-3-yl}-benzenesulfonamide]
pIC50 (PI3Kalpha): 9.13
pEC50 (H460 cells): 6.42
pEC50 (MB453 cells): 6.05
pEC50 (U87 cells): 5.78
pEC50 (MCF7 cells): 6.79
pEC50 (BT474 cells): 6.50

SMILES: Cc1ncc(C#Cc2c(C)ncnc2N2CCOCC2)cc1NS(=O)(=O)c1cccc(F)c1 [Example I-6, 3-Fluoro-N-[2-methyl-5-(4-methyl-6-morpholin-4-yl-pyrimidin-5-ylethynyl)-pyridin-3-yl]-benzenesulfonamide]
pIC50 (PI3Kalpha): 9.00
pEC50 (H460 cells): 6.89
pEC50 (MB453 cells): 6.59
pEC50 (U87 cells): 6.43
pEC50 (MCF7 cells): 7.12
pEC50 (BT474 cells): 6.71

SMILES: CC(=O)N1CCN(c2ncnc(C)c2C#Cc2cnc(C)c(NS(=O)(=O)c3ccc(F)cc3F)c2)CC1 [Example I-17, N-{5-[4-(4-Acetyl-piperazin-1-yl)-6-methyl-pyrimidin-5-ylethynyl]-2-methyl-pyridin-3-yl}-2,4-difluoro-benzenesulfonamide]
pIC50 (PI3Kalpha): 9.10
pEC50 (H460 cells): 6.02
pEC50 (MB453 cells): 6.28
pEC50 (U87 cells): 5.72
pEC50 (MCF7 cells): 7.14
pEC50 (BT474 cells): 6.45

SMILES: COCCS(=O)(=O)Nc1cc(C#Cc2c(C)ncnc2N2CCOCC2)cnc1C [Example I-12, 2-Methoxy-ethanesulfonic acid [2-methyl-5-(4-methyl-6-morpholin-4-yl-pyrimidin-5-ylethynyl)-pyridin-3-yl]-amide]
pIC50 (PI3Kalpha): 8.40
pEC50 (H460 cells): 6.31
pEC50 (MB453 cells): 6.08
pEC50 (U87 cells): 5.89
pEC50 (MCF7 cells): 6.33
pEC50 (BT474 cells): 6.16

The next lines start with results.

pIC50 (PI3Kalpha): 9.10
SMILES: Cc1ncnc(N2CCOCC2)c1C#Cc1cncc(NS(=O)(=O)c2cccnc2)c1 [Example I-22, Pyridine-3-sulfonic acid [5-(4-methyl-6-morpholin-4-yl-pyrimidin-5-ylethynyl)-pyridin-3-yl]-amide]
pEC50 (H460 cells): 5.35
pEC50 (MB453 cells): 5.85
pEC50 (U87 cells): 5.00
pEC50 (MCF7 cells): 5.86
pEC50 (BT474 cells): 5.47

pIC50 (PI3Kalpha): 7.68
SMILES: Cc1ncc(C#Cc2c(C)ncnc2N2CCOCC2)cc1NS(=O)(=O)c1cnoc1C [Example I-47, 5-Methyl-isoxazole-4-sulfonic acid [2-methyl-5-(4-methyl-6-morpholin-4-yl-pyrimidin-5-ylethynyl)-pyridin-3-yl]-amide]
pEC50 (H460 cells): 4.60
pEC50 (MB453 cells): 4.60
pEC50 (U87 cells): 4.60
pEC50 (MCF7 cells): 5.00
pEC50 (BT474 cells): 5.00

pIC50 (PI3Kalpha): 8.70
SMILES: Cc1ncc(C#Cc2c(C)ncnc2N2CCOCC2)cc1NS(=O)(=O)C(C)C [Example I-38, Propane-2-sulfonic acid [2-methyl-5-(4-methyl-6-morpholin-4-yl-pyrimidin-5-ylethynyl)-pyridin-3-yl]-amide]
pEC50 (H460 cells): 6.08
pEC50 (MB453 cells): 6.19
pEC50 (U87 cells): 6.08
pEC50 (MCF7 cells): 6.52
pEC50 (BT474 cells): 5.91

pIC50 (PI3Kalpha): 9.23
SMILES: CCc1ncnc(N2CCOCC2)c1C#Cc1cnc(OC)c(NS(=O)(=O)c2ccccc2)c1 [Example I-26, N-[5-(4-Ethyl-6-morpholin-4-yl-pyrimidin-5-ylethynyl)-2-methoxy-pyridin-3-yl]-benzenesulfonamide]
pEC50 (H460 cells): 7.68
pEC50 (MB453 cells): 7.21
pEC50 (U87 cells): 7.01
pEC50 (MCF7 cells): 8.05
pEC50 (BT474 cells): 7.55

Source: patent publication US8598157B2, “5-alkynyl-pyridines” (Boehringer Ingelheim International GmbH, priority 2011, dated 2013)
